Patent US20200069629A1, “PHEROMONE COMPOSITIONS AND USES THEREOF” (CEVA SANTE ANIMALE, priority 2015, published 2020)

Assay: Stability test of Formula A, contents by gas chromatography
Format: physicochemical
Conditions: in Formula A; for Content T3 months (25/60) / Content T3 months (40/75): 3 months; for Content T3 months (25/60) / Content T7 months (25/60): 25° C. and 60% RH; for Content T3 months (40/75): 40° C. and 75% RH; for Content T7 months (25/60): 7 months; for Content T0 month: white glass flask
Experimental: Detection and measures of the valeric acid, ethyl lactate and linoleic acid were made by using Gas chromatography (GC). Approximately 490 mg of linoleic acid, 53 mg of valeric acid and 78 mg of ethyl lactate accurately weighed are introduced into a 50 ml volumetric flask. This is completed to volume with ethyl acetate. […] A dilution 1/20 is made and completed to volume with ethyl acetate and the solution is stirred to homogenize. Approximately 2.5 g of Formula tested is introduced into a 20 ml volumetric flask. This is completed to volume with ethyl acetate. […] The solution is limpid. Gas chromatography equipped with a Capillary Column HP-FFAP 25 m×320 μm and a FID detector at 250° C. 1 μl of the solution is injected in the inlet (250° C.) and eluted through the column with Helium at constant flow (3 ml/min). Valeric acid (≈5.2 min), linoleic acid (≈13.5 min) and ethyl lactate (≈2.7 min) are quantified and contents thereof (% w/w) are given by the ratio of the areas of the peak corresponding to valeric acid, linoleic acid or ethyl lactate in the chromatogram obtained with the sample preparation and the standard solution.

Row | Structure (SMILES) | Content T3 months (25/60) | Content T3 months (40/75) | Content T7 months (25/60) | Content T0 month
1 | CCOC(=O)C(C)O (stereo not drawn) [Ethyl lactate] | 0.060 % w/w | 0.059 % w/w | 0.059 % w/w | 0.0625 % w/w
2 | CCCCC/C=C\C/C=C\CCCCCCCC(=O)O [Linoleic acid] | 0.386 % w/w | 0.364 % w/w | 0.398 % w/w | 0.395 % w/w
3 | CCCCC(=O)O [Valeric acid] | 0.039 % w/w | 0.038 % w/w | 0.039 % w/w | 0.0425 % w/w
